Data from patent US20030114375A1, “Method for treating cystic fibrosis” (The Government of the USA, Dept of Health and Human …, priority 1994, published 2003).
“And” between values parts separate entries of the source, which are not always exact repeats. Equal entries are not always repeated. Where two headings read alike, the source gives them in different places.

Experiments:
[1] = target: T1, A2a-adenosine receptor (Rattus norvegicus, UniProt P30543); experiment: Inhibition of [3H]CGS 21680 binding to A2a receptors; conditions: rat striatal membranes, 5 nM [3H]CGS 21680; read-out: Ki, μM(A2)
T1 construct: Rat cerebral cortical membranes and striatal membranes were prepared; from tissue; host or cells: rat striatal membranes
T1 sequence (P30543 whole entry): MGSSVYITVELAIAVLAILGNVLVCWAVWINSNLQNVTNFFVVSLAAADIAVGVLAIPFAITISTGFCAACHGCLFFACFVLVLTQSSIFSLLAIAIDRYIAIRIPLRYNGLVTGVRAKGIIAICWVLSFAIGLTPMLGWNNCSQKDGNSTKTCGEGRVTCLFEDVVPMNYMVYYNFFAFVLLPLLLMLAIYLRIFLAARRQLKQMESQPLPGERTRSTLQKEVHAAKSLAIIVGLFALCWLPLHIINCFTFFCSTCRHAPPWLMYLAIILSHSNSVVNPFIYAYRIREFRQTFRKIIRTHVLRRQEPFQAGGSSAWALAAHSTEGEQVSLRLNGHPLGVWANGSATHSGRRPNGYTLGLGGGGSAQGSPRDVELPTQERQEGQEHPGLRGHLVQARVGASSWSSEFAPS
Experimental: (§1) Solid samples of the adenosine derivatives were dissolved in dimethyl sulfoxide (DMSO) and stored in the art at. −20° C. The stock solutions were diluted with DMSO to a concentration of ≦0.1 mM prior to addition to the aqueous medium. The final concentration of DMSO in the assay medium was generally 2%.
Membranes (^˜80 μg protein per tube) were incubated for one hour at 25° C. in a total volume of 0.5 ml of a buffer solution consisting of […] tris hydrochloride and 10 mM MgCl2 at pH 7.4. Test drugs were dissolved in DMSO and added in 10 μl aliquots, resulting in a final DMSO concentration of 2%. Non-specific binding was defined using 20 μM 2-chloroadenosine. Filtration was carried out using a Brandel Cell Harvester, as above, using the tris.HCl/MgCl2 buffer recited hereinabove as the washing buffer.
(§2) At least six different concentrations spanning three orders of magnitude, adjusted appropriately for the IC50 of each compound, were used.

[2] = target: T2, CFTR polypeptide Iα [SEQ ID NO:1] (Homo sapiens, UniProt P13569); experiment: 3H-CPX binding to Iα polypeptide (dot blot filter binding, displacement)
T2 construct: made in house; host or cells: chemical solid-phase synthesis (Yale University)
T2 sequence (P13569 with tags, fused parts or gaps): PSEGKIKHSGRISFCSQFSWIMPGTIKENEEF
Experimental: CPX was used as a representative compound known to activate chloride ion efflux from ΔF508 mutant cells. Stock solutions of CPX were prepared in DMSO in the millimolar concentration range. […] For displacement studies, unlabeled CPX, or other xanthine antagonists and nucleotides, were added to the incubation mixture before the radioactive probe. The mixture was then filtered through a nitrocellulose (NC) membrane (Schleicher & Schuell) by using a standard dot blot apparatus. […] The dot blots were then washed five times with 200 μl TRIS buffer-NaCl solutions (50 mM TRIS pH=7.0, 150 mM NaCl), radioactive spots were cut out, and the total was radioactivity determined by liquid scintillation counting.

[3] = target: T3, Iα polypeptide (Homo sapiens, UniProt P13569); experiment: Phosphatidylserine liposome aggregation driven by Iα polypeptide; assay type: biochemical; conditions: 0.5 μg/ml (0.18 μM) Iα; for Effect on PS liposome aggregation driven by Iα: 2-thio-CPX up to 1 μM, IBMX up to 15 μM
T3 construct: made in house; host or cells: chemical solid-phase synthesis (Yale University)
T3 sequence (P13569 with tags, fused parts or gaps): as above
Experimental: Liposome aggregation assay: Phosphatidylserine (“PS”, obtained from Avanti) was dissolved in chloroform, and small unilamellar liposomes were prepared by the extrusion process known in the art. A Lipex machine was used to extrude the PS in a buffer consisting of 10 mM Na-HEPES, pH 7.2 and 1 mM EDTA. The liposomes were diluted to a final optical density at 540 nm of 0.01 and incubated with different concentrations of the different polypeptides and/or chloride ion efflux-activating compounds.

[4] = target: T4, A1-adenosine receptor (Rattus norvegicus, UniProt P25099); experiment: Inhibition of [3H]N6-phenylisopropyladenosine binding to A1 receptors; conditions: for Ki: rat cerebral cortex membranes, 1 nM [3H]PIA, read-out: Ki, μM(A1)
T4 construct: Rat cerebral cortical membranes and striatal membranes were prepared; from tissue; host or cells: rat cerebral cortex membranes
T4 sequence (P25099 1-326): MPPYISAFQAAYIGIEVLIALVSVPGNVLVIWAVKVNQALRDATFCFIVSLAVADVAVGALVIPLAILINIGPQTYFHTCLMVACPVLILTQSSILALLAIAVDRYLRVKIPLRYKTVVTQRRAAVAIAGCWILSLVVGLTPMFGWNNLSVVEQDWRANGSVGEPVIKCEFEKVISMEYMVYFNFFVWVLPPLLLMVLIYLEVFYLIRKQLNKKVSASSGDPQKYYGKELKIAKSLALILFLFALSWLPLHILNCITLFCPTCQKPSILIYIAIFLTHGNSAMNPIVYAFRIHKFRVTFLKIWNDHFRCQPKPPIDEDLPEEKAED
Experimental: as §1
Inhibition of binding of 1 nM [^3H]N^6-phenylisopropyladenosine (Dupont NEN, Boston, Mass.) to A1 receptors in rat cerebral cortex membranes was measured as described in Schwabe et al., Naunyn-Schmiedeberg's Arch. […] Membranes (^˜100 μg protein per tube) were incubated for 1.5 hours at 37° C. in a total volume of 0.5 ml of 50 mM tris hydrochloride at pH 7.4. Test drugs were dissolved in DMSO and added in 10 μl aliquots, resulting in a final DMSO concentration of 2%. Bound and free radioligand were separated by addition of 3 ml of a buffer containing 50 mM tris hydrochloride, at pH 7.4 at 5° C., followed by vacuum filtration using a Brandel Cell Harvester (Brandel, Gaithersburg, Md.) and a Whatman GF/B glass fiber filter with additional washes totaling 9 ml of buffer. Non-specific binding was determined with 10 μM 2-chloroadenosine.
as §2

[5] = test system: CFPAC cells; conditions: U.S. Pat. No. 5,366,977 / Eidelman et al.; cited from earlier work
[6] = test system: CFPAC cells; experiment: [36Cl]- efflux from CFPAC cells
[7] = test system: CFPAC cells; conditions: read from the graphs

Molecule | Ki [1] | Displacement of 3H-CPX binding to Iα [2] | Effect on PS liposome aggregation driven by Iα [3] | Ki [4] | Activation of chloride efflux from CF cells (words, prior disclosure) [5] | Conc. max. (nM): concentration at maximum impact upon chloride efflux [6] | thresh (nM): minimum concentration required to detect an effect upon chloride efflux [6] | % control: chloride efflux at minimum detection relative to control ([6]; at threshold concentration) | Affinity for A1 receptor [4] | Kd ([2]; Scatchard plot, n=4, 100 nM Iα) | Concentration at maximum rate and extent of Iα-driven liposome aggregation [3] | Efflux rate as compared to control (FIGS. 9-12) ([6]; read from the graphs) | Efflux rate as compared to control (FIGS. 9-12) [7]
3-isobutylmethyl xanthine [Compound 3] | 16 µM | not effected | entirely inactive |  |  |  |  |  |  |  |  |  | 
CCCn1c(=O)c2[nH]c(C34CC5CC(CC3C5)C4)nc2n(CCC)c1=O [Compound 12, 1,3-dipropyl-8-noradamantylxanthine, reference compound] | 0.38 µM |  |  | 0.0013 µM | ineffective | 10 nM | 1 nM | 120% and 120 ± 5% |  |  |  |  | 
CCCn1c(=O)c2[nH]c(C3CCCC3)nc2n(CCC)c1=O [Compound 5, 1,3-dipropyl-8-cyclopentylxanthine, reference compound] |  | Displacement of binding was effected |  |  | promotes chloride efflux | 30 nM | 1 nM |  | high affinity | 0.069 ± 0.027 µM | 100 nM | 200% | 
Cn1c(=O)c2[nH]cnc2n(C)c1=O [Compound 1, theophylline, reference compound] |  |  |  |  |  | 100 nM | 1 nM |  |  |  |  |  | 200%
CCCn1c(=O)c2[nH]c(C3CCCC3)nc2n(CCC)c1=S [Compound 8, 2-thio-8-cylcopentyl-1,3-dipropylxanthine, reference compound] | 0.31 µM | not effected | entirely inactive | 0.00066 µM | ineffective | >>10^4 nM |  |  |  |  |  |  | 
